# Like-named read-outs stand apart in the source and are kept apart here.
# Key:
# Type in all cases: cell-based
# [1] = tested on: C. perfringens; design: Minimal Inhibitory Concentration (bioactivity data): unit not given here; conditions: for M.I.C.: Table III, mass basis, no correction for purity; for Minimal Inhibitory Concentration (bioactivity data): Table IV (separate study)
# [2] = tested on: S. faecalis; conditions: for M.I.C.: Table III, mass basis, no correction for purity; for Minimal Inhibitory Concentration (bioactivity data): Table IV (separate study)
# [3] = tested on: S. bovis; conditions: strain JB1
# [4] = tested on: B. fragilis; conditions: strain UC9370
# [5] = tested on: B. thetaiotaomicron; conditions: strain UC9014
# Procedure: (§1) The assay measures the ability of a compound to inhibit the growth of certain types of anaerobic bacteria which normally inhabit the gut of poultry, swine or cattle.
# (§2) Two mg/ml solutions of the drugs to be tested are made in 10% v/v ethanol/water. This stock is then diluted to one mg per ml and then further diluted through a series of ten-two fold dilutions. At each concentration an aliquot is placed in a sterile petri plate. Nine volumes of molten agar are then added to each plate, mixed and allowed to harden at room temperature. These plates are then transferred to a Coy chamber and allowed to dry and equilibrate with the oxygen free atmosphere.
# (§3) Organisms used for MIC testing are inoculated into broth media, and incubated 18-24 h at 39° C. prior to use. The cultures are then diluted to equal the turbidity of a 0.5 MacFarland barium sulfate standard, except for the porcine isolates P108-3C1, P105-1C3 and P105-1C4 which are diluted 1:1. All inoculations and dilutions are performed in the anaerobic chamber using broth media and syringe transfer through the butyl robber stoppers.
# (§4) Freshly prepared and diluted cultures are loaded into the wells of a Steers replicator device. This apparatus can dispense ca 10 μl of each of 32 cultures onto the surface of the preincubated agar plates. One hour after the inoculation, the inoculum will have been absorbed and the plates are inverted and incubated at 38°-39° C. for 48 h. Plates are then removed from the chamber and the MIC for the test compounds determined. MIC's are reported as the lowest concentration of a compound which prevented detectable growth of a test organism on the agar plates. […] Thus, each set of test plates yields individual MIC values for each of the 32 test organisms.
# [6] = tested on: E. lentum; conditions: strain L-34; Table IV (separate study)
# [7] = tested on: B. fibrisolvens; conditions: for M.I.C.: Table III, mass basis, no correction for purity; for Minimal Inhibitory Concentration (bioactivity data): Table IV (separate study)
# [8] = tested on: M. elsdenii; conditions: strain B159
# [9] = tested on: L. multiparus; conditions: strain 40
# [10] = tested on: S. ruminantium; conditions: for M.I.C.: Table III, mass basis, no correction for purity; for Minimal Inhibitory Concentration (bioactivity data): Table IV (separate study)
# [11] = tested on: R. amylophilus; conditions: strain H18
# [12] = tested on: R. flavefaciens; conditions: for M.I.C.: Table III, mass basis, no correction for purity; for Minimal Inhibitory Concentration (bioactivity data): Table IV (separate study)
# [13] = tested on: E. ruminantium; conditions: strain GA195; Table III; mass basis, no correction for purity
# [14] = tested on: P. ruminicola; conditions: strain 118B
# [15] = tested on: F. necrophorum; conditions: for M.I.C.: Table III, mass basis, no correction for purity; for Minimal Inhibitory Concentration (bioactivity data): Table IV (separate study)
# [16] = tested on: S. hyodysenteriae; design: unit not given here; conditions: Table IV (separate study)
# Procedure: as §1, §2, §3, §4
# [17] = tested on: anaerobic bacteria which normally inhabit the gut of poultry, swine or cattle; assay: in vitro MIC assay, overall comparison of components across the test organisms; conditions: conclusion from Tables III and IV
# Procedure: as §1, §2, §3, §4
# [18] = Table III, mass basis, no correction for purity
compound,measurement,setting,value
"C=C(NC(=O)C(=C)NC(=O)C(=C)NC(=O)c1ccc2c(n1)-c1coc(n1)C(=C)NC(=O)C(=C)NC(=O)c1nc(oc1C)/C(=C/C)NC(=O)c1csc(n1)C(OC)NC(=O)c1nc(oc1C)/C(=C/C(C)O)NC(=O)[C@H]([C@@H](C)O)NC(=O)c1csc-2n1)C(N)=O (stereo partly shown) [Antibiotic 10381b, sulfomycin I, reference compound]",M.I.C.,[1]; strain 71A02,1.6 µg/mL
same,Minimal Inhibitory Concentration (bioactivity data),[1]; strain 71A02,< 0.2
same,M.I.C.,[1]; strain A82-1,3.1 µg/mL
same,Minimal Inhibitory Concentration (bioactivity data),[1]; strain A82-1,12.5
same,M.I.C.,[1]; strain A83-3,3.1 µg/mL
same,Minimal Inhibitory Concentration (bioactivity data),[1]; strain A83-3,< 0.2
same,M.I.C.,[1]; strain A83-RKP,0.8 µg/mL
same,Minimal Inhibitory Concentration (bioactivity data),[1]; strain A83-RKP,0.8
same,M.I.C.,[1]; strain CCS1-11,6.3 µg/mL
same,Minimal Inhibitory Concentration (bioactivity data),[1]; strain CCS1-11,< 0.2
same,M.I.C.,[1]; strain CCS2-09,0.8 µg/mL
same,Minimal Inhibitory Concentration (bioactivity data),[1]; strain CCS2-09,0.8
same,M.I.C.,[1]; strain P1051C3,50.0 µg/mL
same,Minimal Inhibitory Concentration (bioactivity data),[1]; strain P1051C3,12.5
same,M.I.C.,[1]; strain P1083C1,0.4 µg/mL
same,Minimal Inhibitory Concentration (bioactivity data),[1]; strain P1083C1,1.6
same,M.I.C.,[1]; strain RF1B04,0.4 µg/mL
same,Minimal Inhibitory Concentration (bioactivity data),[1]; strain RF1B04,< 0.2
same,M.I.C.,[1]; strain UC9452,3.1 µg/mL
same,Minimal Inhibitory Concentration (bioactivity data),[1]; strain UC9452,1.6
same,M.I.C.,[2]; strain 71A01,25.0 µg/mL
same,Minimal Inhibitory Concentration (bioactivity data),[2]; strain 71A01,12.5
same,M.I.C.,[2]; strain CCS1-03,12.5 µg/mL
same,Minimal Inhibitory Concentration (bioactivity data),[2]; strain CCS1-03,6.3
same,M.I.C.,[2]; strain P1051C4,12.5 µg/mL
same,Minimal Inhibitory Concentration (bioactivity data),[2]; strain P1051C4,3.1
same,M.I.C.,[3]; [18],3.1 µg/mL
same,Minimal Inhibitory Concentration (bioactivity data),[3]; Table IV (separate study),0.8
same,M.I.C.,[4]; [18],25.0 µg/mL
same,Minimal Inhibitory Concentration (bioactivity data),[4]; Table IV (separate study),50.0
same,M.I.C.,[5]; [18],12.5 µg/mL
same,Minimal Inhibitory Concentration (bioactivity data),[5]; Table IV (separate study),25.0
same,Minimal Inhibitory Concentration (bioactivity data),[6],< 0.2
same,M.I.C.,[7]; strain 49,6.3 µg/mL
same,Minimal Inhibitory Concentration (bioactivity data),[7]; strain 49,1.6
same,M.I.C.,[7]; strain D1,0.8 µg/mL
same,Minimal Inhibitory Concentration (bioactivity data),[7]; strain D1,0.8
same,M.I.C.,[8]; [18],> 100.0 µg/mL
same,Minimal Inhibitory Concentration (bioactivity data),[8]; Table IV (separate study),> 100
same,M.I.C.,[9]; [18],1.6 µg/mL
same,Minimal Inhibitory Concentration (bioactivity data),[9]; Table IV (separate study),1.6
same,M.I.C.,[10]; strain GA31,100.0 µg/mL
same,Minimal Inhibitory Concentration (bioactivity data),[10]; strain GA31,0.8
same,M.I.C.,[10]; strain GA192,> 100.0 µg/mL
same,Minimal Inhibitory Concentration (bioactivity data),[10]; strain GA192,1.6
same,M.I.C.,[11]; [18],> 100.0 µg/mL
same,Minimal Inhibitory Concentration (bioactivity data),[11]; Table IV (separate study),1.6
same,M.I.C.,[12]; strain C94,0.8 µg/mL
same,Minimal Inhibitory Concentration (bioactivity data),[12]; strain C94,0.8
same,M.I.C.,[12]; strain FD1,1.6 µg/mL
same,Minimal Inhibitory Concentration (bioactivity data),[12]; strain FD1,1.6
same,M.I.C.,[13],0.4 µg/mL
same,M.I.C.,[14]; [18],< 0.2 µg/mL
same,Minimal Inhibitory Concentration (bioactivity data),[14]; Table IV (separate study),< 0.2
same,M.I.C.,[15]; strain FN4070,50.0 µg/mL
same,Minimal Inhibitory Concentration (bioactivity data),[15]; strain FN4070,100
same,M.I.C.,[15]; strain FN5052,100.0 µg/mL
same,Minimal Inhibitory Concentration (bioactivity data),[15]; strain FN5052,100
same,Minimal Inhibitory Concentration (bioactivity data),[16]; strain 16-4,> 100
same,Minimal Inhibitory Concentration (bioactivity data),[16]; strain B204,> 100
same,in vitro activity ranking of the individual components,[17],second most active
